Measurements from patent publication US20050276832A1, “Topical compositions and uses thereof for treating aquatic animals subjected to disinfection and vaccination” (Veterquimica Ltda., priority 2004, published 2005).

Tested on: Saprolengia sp.
Assay: Antifungal bath treatment of Atlantic salmon infected by Saprolengia sp.
Type: in vivo
Conditions: 1 h baths on Day 1 and Day 7
Excerpt: Five groups were formed, made up of 30 fish each of the Atlantic salmon species, 40-50 grams, showing clear signs of infection by the fungus Saprolengia sp., confirmed by laboratory tests. One of the groups was preserved as control without treatment, while the four remaining groups were subjected to experimental antifingal treatments. In this way, the groups were set up as follows: • GROUP 1: Without antifungal treatment • GROUP 2: Treated with the antifungal product bronopol, according to recommended dose of 20 ppm • GROUP 3: Treated with the Formulation A, in a dose of 28 ml/70 liters of water • GROUP 4: Treated with the Formulation B, in a dose of 28 ml/70 liters of water • GROUP 5: Treated with the Formulation C, in a dose of 28 ml/70 liters of water
The treatments consisted of the following: on Day 1, the fish were submerged for one hour in a bath with 70 liters of water to which the corresponding formulation had been added. Afterwards, they were transferred to breeding tanks that only contained water and with a standard feeding regime, all under the customary aquarium control that includes controlling the temperature (16-17 degrees C.), dissolved oxygen levels not lower than 7 ppm, and control of nitrites and ammonium. On Day 7, the fish were subjected to a second bath, similar to that of Day 1, to continue their development until 14 days of breeding had been completed, keeping a record of the fish killed due to the effect of the Saprolengia fungus. On Day 15, the fish that survived were harvested and the level of infection by Saprolengia was determined for each fish.
The infection level was classified according to the following scale: • INFECTION GRADE 0: healthy fish, without fungus on the skin • INFECTION GRADE 1: fish having only fungal spots on the skin. • INFECTION GRADE 2: fish with short fungal hypha • INFECTION GRADE 3: fish having necrosis of the tissues • INFECTION GRADE 4: fish with cottony hypha • INFECTION GRADE 5: fish dead due to fungal infection (occurring during the 14 days of breeding) Results

O=[N+]([O-])C(Br)(CO)CO [bromopol, bromo-2-nitropropane-1.3-diol]
fish with grade 5 (death) (30 fish per group, dead due to fungal infection during 14 days of breeding): 50% | fish with grade 1-2 (infection level on Day 15, grade 1 fungal spots, grade 2 short fungal hypha): 40% | fish with grade 0 (healthy) (infection level on Day 15, without fungus on the skin): 10%
